Assay results reported in patent US4885361A, “Sulfated oligosaccharides” (Hoffmann-La Roche Inc., priority 1987, dated 1989).

Key:
[1] = system: citrated human plasma (aPTT, coagulation); experiment: aPTT (activated partial thromboplastin time) Test; format: biochemical; conditions: concentration which leads to a coagulation time double the control value, 37° C.
Procedure: aPTT (activated partial thromboplastin time) Test (see Walenga et al., CRC Critical Reviews in Laboratory Sciences 22 (4) 361-389 (1986)): 100 μl of citrated human plasma, which contains various concentrations of test compound, is mixed at 37° C. for 8 minutes with 100μ of Activated Thrombofax (ellagic acid as contact activator and bovine cephalin as platelet lipid substitute). 100 μl of pre-warmed 25 mM calcium chloride solution are then added and the coagultion time is measured in a Fibrometer Coagulation Timer.
(§1) The activity of the test compound is given as the IC50 which is the concentration [μg/ml] which leads to a coagulation time which is double the control value.

[2] = system: HSMC: human smooth muscle cells; experiment: anti-proliferative activity, human smooth muscle cells; format: cell-based; conditions: net proliferation, cells collected on the 7th day, 15% fetal calf serum
Procedure: (§2) Cells of different origin (Swiss 3T3 mouse fibroblastoid cells, HSMC: human smooth muscle cells and endothelial cells, both isolated from human umbilical cord veins) in RPMI 1640 medium containing 10% calf serum (Swiss 3T3 cells), 15% fetal calf serum (HSMC) or 15% fetal calf serum plus 300 μg/ml of endothelial cell growth supplement (endothelial cells) were cultivated at 37° C. in water-saturated air/5% Co2. Confluent cultures were then washed once with HBSS, removed with 0.05% trypsin/0.02%EDTA and collected by centrifugation. The cells were applied to cell culture plates with a density of 5000 cells/culture and the test compound was added one hour later. The cells were then incubated at 37° C. in air/5% CO2 and collected on the 4th day (Swiss 3T3) and on the 7th day (HSMC and endothelial cells). In order to determine th number of cells, these were washed once with HBSS and adhering cells were incubated for 10 minutes at 37° C. with 0.5 ml of trypsin/EDTA solution for separation. 0.5 ml of formol solution (0.5% paraformaldehyde, 0.145M NaCl, 1.3 mM EDTA) was added to each culture in order to fix the cells. […] The number of cells was determined with a Coulter counter. The inhibitory action by the test compounds was determined as follows: [formula] with the net proliferation being the number of cells at the end of the test minus the number of cells on day 1 (=24 hour after inoculation). […]

Factor Xa [3] = experiment: Inhibition of Factor Xa in the Chromogenic Substrate Assay; format: biochemical; conditions: Factor Xa 2.8 nkat/ml, Bz-CO-Ile-Glu-Arg-NH.pNA
thrombin (IIa) = experiment: Inhibition of Thrombin in the Chromogenic Substrate Assay; format: biochemical; conditions: amidolytic activity of thrombin reduced by 50% vs plasma control; anti-thrombin III, pH 8.4
Procedure: Inhibition of Thrombin or Factor Xa in the Chromogenic Substrate Assay (Teien et al., Thrombosis Research 10, 399-410 (1977)): The determination was effected in a Cobas-Bio centrifugal automatic spectrophotometer. The buffer solution used consisted of 50 mM Tris buffer, 180 mM NaCl, 7.5 mM EDTA Na2, 1% PEG 6000 (a polyethylene glycol of mol. weight 6000) and 0.02% Tween 80 (a polyoxyethylene sorbitanmonooleate), pH 8.4. The test solution consisted of 50 μl of buffer, 30 μl of anti-thrombin III (1 U/ml), and 20 μl of plasma which contained various concentrations of test compounds. 30 μl of sample solution and 20 μl of water with 180 μl of thrombin were added to the test cuvette in the automatic analyzer. After incubation at 37° C. for 240 seconds 60 μl of the p-nitranilide, H-D-Phe-Pip-Arg-NH.pNA, (0.75 mM in water) and 20 μl of water were added. The liberation of pNA (p-nitroaniline) was followed during 60 seconds at 405 nm in 10 second intervals in comparison to water as the blank. The inhibitory activity is given as the IC50 which is the concentration [μg/ml] at which the amidolytic activity of thrombin is reduced by 50% in comparison to the plasma control value.

[4] = system: Swiss 3T3 mouse fibroblastoid cells; experiment: anti-proliferative activity, Swiss 3T3 cells; format: cell-based; conditions: net proliferation, cells collected on the 4th day, 10% calf serum
Procedure: as §2

Factor Xa [5] = experiment: anti-Xa Clotting Assay; format: biochemical; conditions: concentration which leads to a coagulation time double the control value; citrated plasma, 37° C.
Procedure: anti-Xa Clotting Assay: 25 μl of citrated plasma having various concentrations of test compound are mixed with 75 μl of Factor Xa (the activated blood coagulation factor X) diluted 1:100 with 0.63% citrated buffer (pH 7.3) which contains 41 mM imidazole, 82 mM NaCl and 0.1% albumin. After warming to 37° C. for 2 minutes 200 μl of a 1:1 mixture of Factor X Deficient Plasma and Platelet Substitute are added and the mixture is incubated at 37° C. for 20 seconds. After the addition of 100 μl of prewarmed 50 mM calcium chloride solution the coagulation time is measured in a Fibrometer.
as §1

mouse = experiment: acute toxicity determination in the mouse; format: in vivo
Procedure: In an acute toxicity determination in the mouse the compound of Example 1 was still not lethal after the intravenous application of 500 mg/kg or after the subcutaneous application of 4000 mg/kg.

[6] = system: bloody lesions of the mucous membrane of the stomach; experiment: mucosa-protective properties (ethanol-induced stomach lesions); format: in vivo; conditions: 30 mg/kg oral, 30 minutes prior to ethanol, rat, vs control group
Procedure: The test procedure described hereinafter can be used to determine the mucosa-protective properties:
Oral administration of absolute ethanol to male rats in a dosage of 1 ml per rat leads within 1 hour to bloody lesions of the mucous membrane of the stomach. Various dosages of the substances to be tested (suspended in 0.125% carboxymethylcellulose) or the vehicle alone (control) are administered orally to the rats (1 ml per rat) 30 minutes prior to the treatment with ethanol. One hour after the administration of the ethanol the animals are killed, their stomachs are investigated for the presence of lesions and the number and the total extent of such lesions are determined.

| Substance | Coagulation inhibition IC50, aPTT [1] [µg/mL] | IC50 HSCM [2] [µg/mL] | Chromogenic Substrate (amidolytic activity) IC50, Xa (Factor Xa [3]) [µg/mL] | Chromogenic Substrate (amidolytic activity) IC50, IIa (thrombin (IIa)) [µg/mL] | IC50 Swiss 3T3 [4] [µg/mL] | Coagulation inhibition IC50, Xa (Factor Xa [5]) [µg/mL] | lethal dose (not lethal after), intravenous (mouse; intravenous) [mg/kg] | lethal dose (not lethal after), subcutaneous (mouse; subcutaneous) [mg/kg] | reduction of the number of lesions [6] [%] |
| --- | --- | --- | --- | --- | --- | --- | --- | --- | --- |
| Heparin [reference compound] | 1.2 | 45 | 2.7 | 1.9 | 35 | 0.6 | – | – | – |
| trestatin A sulfate sodium salt [Example 1] | 7 | 20 | 550 | > 1000 | 30 | > 30 | > 500 | > 4000 | 28 |
